Measured values published in US6696483B2, “Inhibitors of angiogenesis and tumor growth for local and systemic administration” (OncoPharmaceutical, Inc., priority 2000, dated 2004).

Experiments:
[1] = system: LL/2 (Lewis lung carcinoma) tumors; assay: In vivo efficacy in mice carrying LL/2 (Lewis lung carcinoma) tumors; parameters: species or system B6D2F1 mice
Experimental: (§1) For Examples 1-3, the pharmaceutical formulations were prepared just prior to use. Various amounts of brefeldin A (BFA) (mg of drug/kg animal's body weight) were weighed out, and solvent (varying amounts of ethanol in saline) was then added. The mixtures were either vortexed (mechanical mixing) or sonicated until the drug was either completely dissolved or only a very small amount appeared to settle in the bottom the test tube.
(§2) In vivo efficacy was determined using either inbred C3H or hybrid B6D2F1 mice carrying RIF-1 (radiation induced firbrosarcoma-1) or LL/2 (Lewis lung carcinoma) tumors, respectively. The tumor cells were kept in a CO2/O2 atmosphere at 37° C., and grown in monolayers. When confluent, cells were rinsed with ice-cold phosphate buffered ethylenediamine tetraacetic acid (EDTA), followed by trypsin/EDTA treatment for about 3 minutes at 37° C. The cells were then dispersed by the addition of medium with serum and spun down using a centrifuge, then washed once in phosphate-buffered saline (PBS) prior to suspending at the desired density (cells/ml) in sterile Hank's balanced salt solution (HBSS). The cells were then inoculated subcutaneously (s.c.) with either a 100 μl or 50 μl injection on one flank of each mouse to provide the desired number of cells (1.25×10^5, 2.5×10^5 or 5.0×10^5) per site.
(§3) Five to ten days after inoculation with the tumor cells, treatment was initiated with either solvent alone for control groups, or solvent with BFA for the treated group. The mice were treated daily for one to two weeks either intraperitoneally (i.p.) or intravenously (i.v.). The mice (weighing approximately 25 g each) were observed daily for the absence or presence of a tumor, as well as for signs of gross toxicity such as weight loss, hair loss, lethargy, and/or dehydration. The body weight for each mouse was recorded daily until the end of treatment. At the termination of treatment, mice were euthanized, and their tumors removed and stored in formalin for sectioning and staining in future studies. In some experiments, organs such as the kidney, spleen, liver, and brain were also stored in formalin (10%) for future histological analysis of organ toxicity.
The toxicity and efficacy of brefeldin A (BFA, 11 mg/kg) in 10% ethanol (in saline) were determined in B6D2F1 mice. On Day 0, mice were inoculated on one flank with 1.25×10^5 LL/2 tumor cells in 50 μl liquid carrier. […]
All mice were observed daily for signs of gross toxicity and the absence or presence of tumor growth. […] Efficacy was determined by delay in the appearance of the tumor in the experimental group relative to control.
(§4) The efficacy of brefeldin A (BFA, 12 mg/kg) in 10% ethanol (in saline) was evaluated in B6D2F1 mice with a higher tumor cell burden than used in Example 1. […]

[2] = Gross toxicity and organ histology in LL/2 tumor-bearing mice; type: in vivo, B6D2F1 mice
Experimental: as §3
The toxicity and efficacy of brefeldin A (BFA, 11 mg/kg) in 10% ethanol (in saline) were determined in B6D2F1 mice. On Day 0, mice were inoculated on one flank with 1.25×10^5 LL/2 tumor cells in 50 μl liquid carrier. Five days after inoculation with the tumor cells, mice were randomized into control and treated groups. The mice received daily treatments (0.2 ml, i.p.) for two weeks with either 10% ethanol in phosphate-buffered saline (control) or 10% ethanol in phosphate-buffered saline with BFA (treated). Each mouse in the treated group received a total dose of 0.28 mg of BFA daily.
All mice were observed daily for signs of gross toxicity and the absence or presence of tumor growth. In addition, all mice were weighed daily. […] Efficacy was determined by delay in the appearance of the tumor in the experimental group relative to control.
as §4
All mice were observed daily for signs of gross toxicity and the absence or presence of tumor growth. […] Efficacy was determined by delay in the appearance of tumor in the experimental group relative to control.

[3] = system: Human umbilical vein endothelial cells (HUVECs); assay: In vitro capillary tube formation assay on Matrigel; type: cell-based; conditions: tested concentrations of 4.0 nM and above (4.0, 40, 100, 400 nM); 18 hours
Experimental: The in vitro influence of brefeldin A on angiogenesis was evaluated. Human umbilical vein endothelial cells (HUVECs) were cultured in medium EBM-2 complete™ (BioWhittaker, Inc., Baltimore, Md.). Matrigel® (200 μl, synthetic basement membrane substrate) was pipetted gently to avoid air bubbles on the surface of a 48-well plate. Following application of Matrigel® substrate, the plate was placed in an incubator at 37° C. for 30 minutes to promote gelling. HUVECs were harvested from tissue culture flasks, counted, and diluted to 15×10^4/ml. The cell suspension (200 μl) was added to the Matrigel® substrate, such that the final concentration was 30,000 cells/well. Two wells/concentration were used. For evaluation of antiangiogenic activity, a 0.4 mM BFA stock (in dimethyl sulfoxide, DMSO) was diluted to a final concentration of 400, 100, 40, 4.0, and 0.4 nM before adding cells. The final DMSO concentration was 0.02%. […] To evaluate capillary tube formation, plates were viewed under phase contrast low magnification (10×), a photo reticule was used to define the area, and the capillary tube network was counted within the designated area. Only complete tubes that were inside the rectangle were counted.
Data were expressed as percent of complete capillary tube formation relative to untreated control cultures incubated under the same conditions (control=100%). […]

[4] = system: rat aortic ring explant cultures; assay: Ex vivo rat aortic ring explant assay (microvessel outgrowth); type: cell-based, Sprague-Dawley rats; conditions: tested concentrations of 200 nM and above (200, 400, 1000 nM); Day 7; average of three trials
Experimental: The ex vivo influence of brefeldin A on angiogenesis was evaluated as follows. Male Sprague-Dawley rats weighing approximately 250 g were anesthetized and their thoracic aortas removed carefully to avoid damaging the vessel wall. Aortas were rinsed in serum-free endothelial cell basal medium, the surrounding adventitia removed and cleaned, and the vessels cut into two millimeter (mm) concentric rings. Each ring was embedded in freshly prepared rattail collagen. Following gelation for 30 minutes at 37° C., collagen gel cultures were transferred to 16 mm wells (4 well plate), each containing 0.5 ml of serum free (MCBD 131) medium. Brefeldin A was dissolved in DMSO and mixed with serum free medium at final concentrations of 40 nM 100 nM, 200 nM, 400 nM, and 1000 nM immediately prior to the addition of media to collagen-embedded rat aortic ring explant cultures. The final concentration of DMSO in treated and control cultures was 0.02%. Explant cultures were incubated at 35.5° C. in a 5% CO2 humidified atmosphere, and the media replaced every two days over the course of the 8-10 day study. Visual counts of microvessel outgrowths from replicate explant cultures were performed using bright field microscopy during microvessel peak growth (Day 7).
Data were expressed as percent inhibition of microvessel growth relative to vehicle-treated control cultures (FIG. 8). […]

[5] = Gross toxicity in RIF-1 tumor-bearing mice; type: in vivo, C3H mice; conditions: Example 3; 8 mg/kg i.v. daily for eight days
Experimental: as §3
On Day 0, C3H mice were inoculated on one flank (s.c.) with 2.5×10^5 RIF-1 tumor cells in 50 μl liquid carrier. Ten days following tumor cell inoculation, mice were randomized into control and treated groups. […]
(§5) All mice were observed daily for signs of gross toxicity and the absence or presence of tumor growth. […] Efficacy was determined by tumor growth delay as evidenced by the size and appearance of the tumor in the treated group relative to control.

RIF-1 tumors = assay: In vivo efficacy in mice carrying RIF-1 (radiation induced fibrosarcoma-1) tumors; parameters: species or system C3H mice; conditions: Example 3
Experimental: as §1, §2
Five to ten days after inoculation with the tumor cells, treatment was initiated with either solvent alone for control groups, or solvent with BFA for the treated group. The mice were treated daily for one to two weeks either intraperitoneally (i.p.) or intravenously (i.v.). […] The body weight for each mouse was recorded daily until the end of treatment. […]
The efficacy of a lower dose of BFA (8 mg/kg), in a lower concentration of ethanol (1.0%) in phosphate-buffered saline, relative to Examples 1 and 2 was determined. […]
as §5

[6] = Example 2, 12 mg/kg i.p. daily for two weeks, 5.0×10^5 LL/2 cells

SMILES: C[C@H]1CCC/C=C/[C@@H]2C[C@H](O)C[C@H]2[C@H](O)/C=C/C(=O)O1 [brefeldin A]
- presence of tumor (gross observation, FIG. 1) ([1]; Example 1, 11 mg/kg i.p. daily for two weeks in 10% ethanol, 1.25×10^5 LL/2 cells): no evidence of tumor was observed
- tumor at inoculation site (skin sample histology, FIG. 2A) ([1]; Example 1, 11 mg/kg i.p. daily for two weeks, after final treatment): No evidence of tumor at the injection site
- tumor growth delay (FIG. 3) [1, 6]: significant tumor growth delay
- tumor size reduction relative to control group [1, 6]: at least 25%
- gross toxicities (weight loss, hair loss, lethargy, dehydration) ([2]; Example 1, 11 mg/kg i.p. daily for two weeks): not observed
- toxicity-related effects in brain, kidney, liver, spleen ([2]; Example 1, 11 mg/kg i.p. daily for two weeks, H&E histology): no toxicity-related effects
- gross toxicity (weight loss (FIG. 4), hair loss, lethargy) ([2]; Example 2, 12 mg/kg i.p. daily for two weeks): no gross toxicity
- inhibition of angiogenesis (complete capillary tube formation relative to untreated control) [3]: more than 50%
- inhibition of angiogenesis (microvessel growth relative to vehicle-treated control) [4]: more than 50%
- gross toxicity (weight loss, hair loss, lethargy, dehydration) [5]: no gross toxicity was observed
- vessel density in tumor sections (qualitative) (RIF-1 tumors; 8 mg/kg i.v. daily for eight days): less vessel density
- tumor size relative to control (FIG. 6) (RIF-1 tumors; 8 mg/kg i.v. daily for eight days in 1.0% ethanol, 2.5×10^5 RIF-1 cells): significantly smaller
- tumor invasiveness on harvesting (RIF-1 tumors; 8 mg/kg i.v. daily for eight days, control tumors penetrated muscle): remained relatively localized and relatively easy to remove
